Measurements from patent publication US20260166128A1, “HUMAN AMYLIN ANALOG, AND DERIVATIVE THEREOF AND USE THEREOF” (priority 2022, published 2026).
Numbered stars: 1 amine (or outer) side, 2 acyl side, 3 side chain; on linkers, the order of the positions; unused ones are H or OH. Bridge positions count the residues as written; N and C are the ends. Square brackets hold non-standard residues; d marks the D form. Side chains are listed from the residue outwards. Peptide text beside a SMILES is read from it. * marks the point of attachment. C20 diacid = O=C(O)CCCCCCCCCCCCCCCCCCC(=O)*; γGlu = O=C(O)[C@H](CCC(=O)[*:2])N[*:1]; Hyp = O=C(O)[C@@H]1C[C@@H](O)CN1; Orn = NCCC[C@H](N)C(=O)O; Dab = NCC[C@H](N)C(=O)O; Dap = NC[C@H](N)C(=O)O

Molecular target: T1, human amylin receptor (Homo sapiens, UniProt O60896+P30988)
T1 construct: host or cells: CHO-K1/Ga15/AMY3 cells, further stably transfected with a CRE-luciferase plasmid
T1 sequence (P30988 25-474): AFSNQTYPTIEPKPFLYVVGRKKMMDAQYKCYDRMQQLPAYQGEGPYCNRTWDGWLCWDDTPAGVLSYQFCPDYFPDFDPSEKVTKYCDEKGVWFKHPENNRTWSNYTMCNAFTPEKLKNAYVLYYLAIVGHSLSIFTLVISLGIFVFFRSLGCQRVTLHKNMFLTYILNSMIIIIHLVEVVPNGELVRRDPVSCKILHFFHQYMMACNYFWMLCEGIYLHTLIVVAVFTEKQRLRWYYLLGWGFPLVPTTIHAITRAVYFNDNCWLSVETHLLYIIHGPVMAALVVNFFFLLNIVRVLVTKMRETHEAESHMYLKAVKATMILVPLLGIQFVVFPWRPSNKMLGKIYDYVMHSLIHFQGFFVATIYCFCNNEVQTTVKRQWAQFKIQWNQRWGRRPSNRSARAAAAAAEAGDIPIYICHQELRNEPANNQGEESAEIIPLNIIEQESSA
T1 sequence (O60896 24-148 partner): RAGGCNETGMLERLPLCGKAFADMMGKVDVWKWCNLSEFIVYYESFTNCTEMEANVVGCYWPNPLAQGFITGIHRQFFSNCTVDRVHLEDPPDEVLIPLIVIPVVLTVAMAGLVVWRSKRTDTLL
Experiment: Luciferase assay of amylin derivatives in amylin receptor/CRE-luc CHO cell line
Assay type: cell-based
Settings: CHO-K1/Ga15/AMY3 CRE-luc cells, 24 hours incubation, F12 medium containing 10% FBS; read-out: EC50
Method: The experiment was intended to detect the activity or efficacy of the amylin derivatives on a human amylin receptor in vitro by luciferase assay.
50 μL of growth medium (F12 medium containing 10% FBS) was added into each well of a white 96-well plate, and the stably transfected amylin/CRE-lue CHO cells were inoculated into the white 96-well plate at a density of about 20,000 cells/well for activity determination.

Structure (SMILES)	EC50 [nM]
CC[C@H](C)[C@H](NC(=O)[C@@H]1CCCN1C(=O)[C@H](CCCCN)NC(=O)[C@H](CC(C)C)NC(=O)[C@H](CC(N)=O)NC(=O)[C@H](CC(N)=O)NC(=O)[C@H](CO)NC(=O)[C@H](CO)NC(=O)[C@H](Cc1c[nH]cn1)NC(=O)[C@H](CCCNC(=N)N)NC(=O)[C@H](CC(C)C)NC(=O)[C@H](Cc1ccccc1)NC(=O)[C@H](CC(=O)O)NC(=O)[C@H](C)NC(=O)[C@H](CC(C)C)NC(=O)[C@H](CCCNC(=N)N)NC(=O)[C@H](CCC(N)=O)NC(=O)[C@@H](NC(=O)[C@H](C)NC(=O)[C@@H]1CSSC[C@H](NC(=O)[C@@H](N)CCCCNC(=O)CC[C@H](NC(=O)CCCCCCCCCCCCCCCCCCC(=O)O)C(=O)O)C(=O)N[C@@H](CC(N)=O)C(=O)N[C@@H]([C@@H](C)O)C(=O)N[C@@H](C)C(=O)N[C@@H]([C@@H](C)O)C(=O)N1)[C@@H](C)O)C(=O)N[C@@H](CC(C)C)C(=O)N1CCC[C@H]1C(=O)N1CCC[C@H]1C(=O)N[C@H](C(=O)N[C@@H](CC(N)=O)C(=O)N[C@H](C(=O)NCC(=O)N[C@@H](CO)C(=O)N[C@@H](CC(N)=O)C(=O)N[C@H](C(=O)N1C[C@H](O)C[C@H]1C(N)=O)[C@@H](C)O)C(C)C)[C@@H](C)O [PD072] (H-K([γGlu-C20 diacid])CNTATCATQRLADFLRHSSNNLKPILPPTNVGSNT[Hyp]-NH2; disulfide 2-7)	0.027
CC[C@H](C)[C@H](NC(=O)[C@@H]1CCCN1C(=O)[C@H](CCCCNC(=O)CC[C@H](NC(=O)CCCCCCCCCCCCCCCCCCC(=O)O)C(=O)O)NC(=O)[C@H](CC(C)C)NC(=O)[C@H](CC(N)=O)NC(=O)[C@H](CC(N)=O)NC(=O)[C@H](CO)NC(=O)[C@H](CO)NC(=O)[C@H](Cc1c[nH]cn1)NC(=O)[C@H](CCCNC(=N)N)NC(=O)[C@H](CC(C)C)NC(=O)[C@H](Cc1ccccc1)NC(=O)[C@H](CC(=O)O)NC(=O)[C@H](C)NC(=O)[C@H](CC(C)C)NC(=O)[C@H](CCCNC(=N)N)NC(=O)[C@H](CCC(N)=O)NC(=O)[C@@H](NC(=O)[C@H](C)NC(=O)[C@@H]1CSSC[C@H](NC(=O)[C@@H](N)CN)C(=O)N[C@@H](CC(N)=O)C(=O)N[C@@H]([C@@H](C)O)C(=O)N[C@@H](C)C(=O)N[C@@H]([C@@H](C)O)C(=O)N1)[C@@H](C)O)C(=O)N[C@@H](CC(C)C)C(=O)N1CCC[C@H]1C(=O)N1CCC[C@H]1C(=O)N[C@H](C(=O)N[C@@H](CC(N)=O)C(=O)N[C@H](C(=O)NCC(=O)N[C@@H](CO)C(=O)N[C@@H](CC(N)=O)C(=O)N[C@H](C(=O)N1C[C@H](O)C[C@H]1C(N)=O)[C@@H](C)O)C(C)C)[C@@H](C)O [PD073] (H-[Dap]CNTATCATQRLADFLRHSSNNLK([γGlu-C20 diacid])PILPPTNVGSNT[Hyp]-NH2; disulfide 2-7)	0.063
CC[C@H](C)[C@H](NC(=O)[C@@H]1CCCN1C(=O)[C@H](CCCCNC(=O)CC[C@H](NC(=O)CCCCCCCCCCCCCCCCCCC(=O)O)C(=O)O)NC(=O)[C@H](CC(C)C)NC(=O)[C@H](CC(N)=O)NC(=O)[C@H](CC(N)=O)NC(=O)[C@H](CO)NC(=O)[C@H](CO)NC(=O)[C@H](Cc1c[nH]cn1)NC(=O)[C@H](CCCNC(=N)N)NC(=O)[C@H](CC(C)C)NC(=O)[C@H](Cc1ccccc1)NC(=O)[C@H](CC(=O)O)NC(=O)[C@H](C)NC(=O)[C@H](CC(C)C)NC(=O)[C@H](CCCNC(=N)N)NC(=O)[C@H](CCC(N)=O)NC(=O)[C@@H](NC(=O)[C@H](C)NC(=O)[C@@H]1CSSC[C@H](NC(=O)[C@@H](N)CCN)C(=O)N[C@@H](CC(N)=O)C(=O)N[C@@H]([C@@H](C)O)C(=O)N[C@@H](C)C(=O)N[C@@H]([C@@H](C)O)C(=O)N1)[C@@H](C)O)C(=O)N[C@@H](CC(C)C)C(=O)N1CCC[C@H]1C(=O)N1CCC[C@H]1C(=O)N[C@H](C(=O)N[C@@H](CC(N)=O)C(=O)N[C@H](C(=O)NCC(=O)N[C@@H](CO)C(=O)N[C@@H](CC(N)=O)C(=O)N[C@H](C(=O)N1C[C@H](O)C[C@H]1C(N)=O)[C@@H](C)O)C(C)C)[C@@H](C)O [PD074] (H-[Dab]CNTATCATQRLADFLRHSSNNLK([γGlu-C20 diacid])PILPPTNVGSNT[Hyp]-NH2; disulfide 2-7)	0.066

Results, then the compound that gave them:

EC50 [nM]	Structure (SMILES)
0.048	CC[C@H](C)[C@H](NC(=O)[C@@H]1CCCN1C(=O)[C@H](CCCCNC(=O)CC[C@H](NC(=O)CCCCCCCCCCCCCCCCCCC(=O)O)C(=O)O)NC(=O)[C@H](CC(C)C)NC(=O)[C@H](CC(N)=O)NC(=O)[C@H](CC(N)=O)NC(=O)[C@H](CO)NC(=O)[C@H](CO)NC(=O)[C@H](Cc1c[nH]cn1)NC(=O)[C@H](CCCNC(=N)N)NC(=O)[C@H](CC(C)C)NC(=O)[C@H](Cc1ccccc1)NC(=O)[C@H](CC(=O)O)NC(=O)[C@H](C)NC(=O)[C@H](CC(C)C)NC(=O)[C@H](CCCNC(=N)N)NC(=O)[C@H](CCC(N)=O)NC(=O)[C@@H](NC(=O)[C@H](C)NC(=O)[C@@H]1CSSC[C@H](NC(=O)[C@@H](N)CCCN)C(=O)N[C@@H](CC(N)=O)C(=O)N[C@@H]([C@@H](C)O)C(=O)N[C@@H](C)C(=O)N[C@@H]([C@@H](C)O)C(=O)N1)[C@@H](C)O)C(=O)N[C@@H](CC(C)C)C(=O)N1CCC[C@H]1C(=O)N1CCC[C@H]1C(=O)N[C@H](C(=O)N[C@@H](CC(N)=O)C(=O)N[C@H](C(=O)NCC(=O)N[C@@H](CO)C(=O)N[C@@H](CC(N)=O)C(=O)N[C@H](C(=O)N1C[C@H](O)C[C@H]1C(N)=O)[C@@H](C)O)C(C)C)[C@@H](C)O [PD075] (H-[Orn]CNTATCATQRLADFLRHSSNNLK([γGlu-C20 diacid])PILPPTNVGSNT[Hyp]-NH2; disulfide 2-7)
0.04	CC[C@H](C)[C@H](NC(=O)[C@@H]1CCCN1C(=O)[C@H](CCCCNC(=O)CC[C@H](NC(=O)CCCCCCCCCCCCCCCCCCC(=O)O)C(=O)O)NC(=O)[C@H](CC(C)C)NC(=O)[C@H](CC(N)=O)NC(=O)[C@H](CC(N)=O)NC(=O)[C@H](CO)NC(=O)[C@H](CO)NC(=O)[C@H](Cc1c[nH]cn1)NC(=O)[C@H](CCCNC(=N)N)NC(=O)[C@H](CC(C)C)NC(=O)[C@H](Cc1ccccc1)NC(=O)[C@H](CC(=O)O)NC(=O)[C@H](C)NC(=O)[C@H](CC(C)C)NC(=O)[C@H](CCCNC(=N)N)NC(=O)[C@H](CCC(N)=O)NC(=O)[C@@H](NC(=O)[C@H](C)NC(=O)[C@@H]1CSSC[C@H](NC(=O)[C@@H](N)CCCCN)C(=O)N[C@@H](CC(N)=O)C(=O)N[C@@H]([C@@H](C)O)C(=O)N[C@@H](C)C(=O)N[C@@H]([C@@H](C)O)C(=O)N1)[C@@H](C)O)C(=O)N[C@@H](CC(C)C)C(=O)N1CCC[C@H]1C(=O)N1CCC[C@H]1C(=O)N[C@H](C(=O)N[C@@H](CC(N)=O)C(=O)N[C@H](C(=O)NCC(=O)N[C@@H](CO)C(=O)N[C@@H](CC(N)=O)C(=O)N[C@H](C(=O)N1C[C@H](O)C[C@H]1C(N)=O)[C@@H](C)O)C(C)C)[C@@H](C)O [PD076] (H-KCNTATCATQRLADFLRHSSNNLK([γGlu-C20 diacid])PILPPTNVGSNT[Hyp]-NH2; disulfide 2-7)
